Assay results: patent US20210115104A1, “AMYLIN ANALOGUES” (Zealand Pharma A/S, priority 2015, published 2021)
*1 amine or outer side, *2 acyl side, *3 side chain or, on linkers, in order; H or OH if unused. Where a SMILES comes first, the peptide text is derived from it. Bridges are numbered along the chain shown (N, C = ends). [ ]: non-standard residue; d: D form. The star is where a group is joined. C20 diacid = O=C(O)CCCCCCCCCCCCCCCCCCC(=O)*; γGlu = O=C(O)[C@H](CCC(=O)[*:2])N[*:1]; Hyp = O=C(O)[C@@H]1C[C@@H](O)CN1; NMeI = CC[C@H](C)[C@H](NC)C(=O)O; Aad = N[C@@H](CCCC(=O)O)C(=O)O; Sar = CNCC(=O)O

Experiments:
[1] = target: T1, human calcitonin receptor (hCTR2) (Homo sapiens, UniProt P30988); experiment: hCTR2 cAMP assay (AlphaScreen) in COS7 cells; assay type: cell-based; details: cAMP induction, COS7 cells expressing hCTR2; Table 1; read-out: hCTR2 EC50
T1 construct: expressed in transfected cells
T1 sequence (P30988 25-474): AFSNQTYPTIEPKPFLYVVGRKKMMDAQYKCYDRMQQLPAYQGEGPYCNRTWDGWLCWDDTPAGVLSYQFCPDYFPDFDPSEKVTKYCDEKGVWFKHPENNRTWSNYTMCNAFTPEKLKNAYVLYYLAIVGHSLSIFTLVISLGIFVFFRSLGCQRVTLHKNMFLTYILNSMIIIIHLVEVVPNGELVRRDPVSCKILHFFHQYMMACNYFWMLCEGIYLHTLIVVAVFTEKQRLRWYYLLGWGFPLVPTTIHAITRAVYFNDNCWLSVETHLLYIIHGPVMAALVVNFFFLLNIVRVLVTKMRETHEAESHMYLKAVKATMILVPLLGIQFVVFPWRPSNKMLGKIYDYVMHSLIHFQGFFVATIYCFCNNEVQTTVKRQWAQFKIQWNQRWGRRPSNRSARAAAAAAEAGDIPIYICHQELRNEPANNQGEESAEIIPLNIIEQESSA
Outline: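 cAMP induction, read by AlphaScreen after lysis, gives EC50 values via 4PL curve fitting. Peptides were applied at rising concentrations for 15 min at 37 °C, with IBMX and 0.1% casein in HEPES-buffered Tyrode pH 7.4, to COS7 cells (no endogenous RAMPs) stably expressing human CTR2.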

[2] = target: T2, human amylin receptor 3 (hAMYR3), hCTR2 co-expressed with hRAMP3 (Homo sapiens, UniProt O60896+P30988); experiment: hAMYR3 cAMP assay (AlphaScreen) in COS7 cells; assay type: cell-based; details: cAMP induction, COS7 cells expressing hAMYR3; Table 1; read-out: hAMYR3 EC50
T2 construct: expressed in transfected cells
T2 sequence (P30988 25-474): T1 sequence (P30988 25-474)
T2 sequence (O60896 24-148 partner): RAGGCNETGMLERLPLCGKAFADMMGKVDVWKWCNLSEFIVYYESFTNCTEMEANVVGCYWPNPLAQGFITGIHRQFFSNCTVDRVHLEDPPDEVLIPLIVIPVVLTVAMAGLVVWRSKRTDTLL
Outline: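 EC50 values derive from 4PL curve fits of cAMP (AlphaScreen) in lysates of RAMP-naive COS7 cells stably carrying hCTR2 plus hRAMP3. Peptide dilution series were applied for 15 min at 37 °C in pH 7.4 Tyrode buffer containing 100 µM IBMX and 0.1% casein.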

[3] = Assessment of chemical stability (RP-HPLC normalized purity); assay type: physicochemical; details: 7 days, 40° C., Table 1
Outline: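 Purity after 7 days at 40° C is expressed relative to T=0 (set to 100) for each pH. Samples at 0.2 mg/ml, pH 4, 6, 7.5 or 9, analyzed by RP-HPLC with UV 220 nm on C8 (ammonium formate) or C18 (TFA) gradients.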

| SMILES | EC50 [1] | EC50 [2] | Normalized purity after 7 days, 40° C., pH 4 ([3]; pH 4, 0.2 mg/ml) | Normalized purity after 7 days, 40° C., pH 7.5 ([3]; pH 7.5, 0.2 mg/ml) | Normalized purity after 7 days, 40° C., pH 9 ([3]; pH 9, 0.2 mg/ml) |
| --- | --- | --- | --- | --- | --- |
| CC[C@H](C)[C@@H](C(=O)N[C@@H](CC(C)C)C(=O)N[C@@H](CO)C(=O)N[C@@H](CO)C(=O)N[C@H](C(=O)N[C@@H](CCC(=O)O)C(=O)N[C@H](C(=O)NCC(=O)N[C@@H](CO)C(=O)N[C@@H](CO)C(=O)N[C@H](C(=O)N1C[C@H](O)C[C@H]1C(N)=O)[C@@H](C)O)C(C)C)[C@@H](C)O)N(C)C(=O)[C@H](C)NC(=O)CN(C)C(=O)[C@H](Cc1ccccc1)NC(=O)[C@H](CO)NC(=O)[C@H](CO)NC(=O)[C@H](CCCNC(=N)N)NC(=O)[C@H](CC(N)=O)NC(=O)[C@H](CC(C)C)NC(=O)[C@H](Cc1ccccc1)NC(=O)[C@H](Cc1c[nH]cn1)NC(=O)[C@H](C)NC(=O)[C@H](CC(C)C)NC(=O)[C@H](CCCNC(=N)N)NC(=O)[C@H](CCC(=O)O)NC(=O)[C@@H](NC(=O)[C@H](C)NC(=O)[C@@H]1CSSC[C@H](NC(=O)[C@H](CCCNC(=N)N)NC(=O)CC[C@H](NC(=O)CCCCCCCCCCCCCCCCCCC(=O)O)C(=O)O)C(=O)NCC(=O)N[C@@H]([C@@H](C)O)C(=O)N[C@@H](C)C(=O)N[C@@H]([C@@H](C)O)C(=O)N1)[C@@H](C)O [Compound 29, [19CD]-isoGlu-R-C( )-GTAT-C( )-ATERLAHFLNRSSF-Gly(Me)-A-Ile(Me)-LSSTEVGSST-Hyp-NH2] ({C20 diacid-γGlu}-RCGTATCATERLAHFLNRSSF[Sar]A[NMeI]LSSTEVGSST[Hyp]-NH2; disulfide 2-7) | 0.09 nM | 0.12 nM | A (A = >90%) | B (B = 70-90%) | B (B = 70-90%) |
| CC[C@H](C)[C@@H](C(=O)N[C@@H](CC(C)C)C(=O)N[C@@H](CO)C(=O)N[C@@H](CO)C(=O)N[C@H](C(=O)N[C@@H](CCC(=O)O)C(=O)N[C@H](C(=O)NCC(=O)N[C@@H](CO)C(=O)N[C@@H](CO)C(=O)N[C@H](C(=O)N1C[C@H](O)C[C@H]1C(N)=O)[C@@H](C)O)C(C)C)[C@@H](C)O)N(C)C(=O)[C@H](C)NC(=O)CN(C)C(=O)[C@H](Cc1ccccc1)NC(=O)[C@H](CO)NC(=O)[C@H](CO)NC(=O)[C@H](CCCNC(=N)N)NC(=O)[C@H](CCC(N)=O)NC(=O)[C@H](CC(C)C)NC(=O)[C@H](Cc1ccccc1)NC(=O)[C@H](CCCC(=O)O)NC(=O)[C@H](C)NC(=O)[C@H](CC(C)C)NC(=O)[C@H](CCCNC(=N)N)NC(=O)[C@H](CCC(N)=O)NC(=O)[C@@H](NC(=O)[C@H](C)NC(=O)[C@@H]1CSSC[C@H](NC(=O)[C@H](CCCNC(=N)N)NC(=O)CC[C@H](NC(=O)CCCCCCCCCCCCCCCCCCC(=O)O)C(=O)O)C(=O)N[C@@H](CC(N)=O)C(=O)N[C@@H]([C@@H](C)O)C(=O)N[C@@H](C)C(=O)N[C@@H]([C@@H](C)O)C(=O)N1)[C@@H](C)O [Compound 87, [19CD]-isoGlu-R-C( )-NTAT-C( )-ATQRLA-Aad-FLQRSSF-Gly(Me)-A-Ile(Me)-LSSTEVGSST-Hyp-NH2] ({C20 diacid-γGlu}-RCNTATCATQRLA[Aad]FLQRSSF[Sar]A[NMeI]LSSTEVGSST[Hyp]-NH2; disulfide 2-7) | 0.2 nM | 0.13 nM |  |  |  |
